Results as given in patent US7622475B2, “EP2 agonists” (Pfizer Inc, priority 2006, dated 2009).

Legend:
EP2 = EP2 (Homo sapiens, UniProt P43116); assay: EP2 cAMP EC50 (Table 1); type: cell-based
[1] = biological target: T1, prostaglandin E2 type 2 (EP2) receptors (Homo sapiens, UniProt P43116); assay: Assay for binding to prostaglandin E2 receptors (3H-prostaglandin E2 displacement, membranes of transfected cells); settings: displacement of 3H-prostaglandin E2
T1 construct: expressed in transfected cells
Experimental: All operations are performed at 4° C. […] These are lysed by sonification with a Branson Sonifier (Model #250, Branson Ultrasonics Corporation, Danbury, Conn.) in 2 fifteen second bursts. Unlysed cells and debris are removed by centrifugation at 100×g for 10 min. Membranes are then harvested by centrifugation at 45,000×g for 30 minutes. Pelleted membranes are resuspended to 3-10 mg protein per ml, protein concentration being determined according to the method of Bradford [Bradford, M., Anal. Biochem., 72, 248 (1976)]. Resuspended membranes are then stored frozen at −80° C. until use.
Frozen membranes as prepared are thawed and diluted to 1 mg protein per ml in Buffer A. One volume of membrane preparation is combined with 0.05 volume test compound or buffer and one volume of 3 nM 3H-prostaglandin E2 (#TRK 431, Amersham, Arlington Heights, Ill.) in Buffer A. The mixture (205 μL total volume) is incubated for 1 hour at 25° C. The membranes are then recovered by filtration through type GF/C glass fiber filters (#1 205401, Wallac, Gaithersburg, Md.) using a Tomtec harvester (Model Mach II/96, Tomtec, Orange, Conn.). The membranes with bound 3H-prostaglandin E2 are trapped by the filter, the buffer and unbound 3H-prostaglandin E2 pass through the filter into waste. Each sample is then washed 3 times with 3 ml of [50 mM Tris-HCl (pH 7.4), 10 mM MgCl2, 1 mM EDTA]. The filters are then dried by heating in a microwave oven. To determine the amount of 3H-prostaglandin bound to the membranes, the dried filters are placed into plastic bags with scintillation fluid and counted in a LKB 1205 Betaplate reader (Wallac, Gaithersburg, Md.). IC50s are determined from the concentration of test compound required to displace 50% of the specifically bound 3H-prostaglandin E2.

[2] = system: ocular hypertensive non-human primates; assay: IOP change after topical application in ocular hypertensive non-human primates; type: in vivo; settings: for ΔΔEmax (mm Hg): dosed hypertensive eye vs vehicle; for change in vivo at 0.1 %: Primates, read-out: ΔΔEmax (%)
Experimental: Tables 2 and 3 describe the intraocular pressure (IOP) changes that were seen following topical application of EP2 agonists in ocular hypertensive non-human primates. Typically, compounds in suitable formulations were dosed topically and IOP was measured using tonometry. Changes in IOP between vehicle treatment followed by treatment with EP2 compounds were assessed over time in the dosed hypertensive eye. ΔΔ Emax reflects the difference in IOP from EP2 compound-treated eye over that seen for vehicle-treated eye at the timepoint wherein maximum IOP reduction for compound was seen. The percent ΔΔ Emax was the percentage change in IOP reduction conferred by compound over that for vehicle (set at 100%). Tmax represents the time point at which maximum IOP reduction of compound was observed. […] NS represents not significant. Table 2 compares acids of EP2 compound while Table 3 compares IOP response seen with esters of certain acids. Esters provide better corneal penetration and improved drug exposure in the anterior chamber compared to acids and are therefore dosed at ⅕th the dose for acids […].

[3] = Solid form by powder X-ray diffraction; type: physicochemical; settings: FIG. 1
Experimental: During analysis, the samples were analyzed from angles of 4 to 40 degrees (θ-2θ) using a scan time of 60 seconds and a scan spot size of 0.5 mm.
The X-Ray diffraction peaks, characterized by peak positions and intensity assignments, have been extracted from the X-ray powder diffractogram of Example 1 and comparative compound 12. One of skill in the art will appreciate that the peak positions (2θ) will show some inter-apparatus variability, typically as much as 0.1 degrees. Accordingly, where peak positions (2θ) are reported, one of skill in the art will recognize that such numbers are intended to encompass such inter-apparatus variability.

glaucomatous dogs = assay: IOP change after topical instillation in glaucomatous dogs; type: in vivo; settings: single 50 μl drop, @ 6 h, drawing 64 […] ([…]), drawing 65 0.1 mg/ml (0.01%)
Experimental: Typically, compounds in suitable formulations were dosed topically and IOP was measured using tonometry. A single 50 μl drop containing either vehicle or drug was instilled in each eye of glaucomatous dogs and IOP was measured at 1, 2, 4, and 6 hours post dose. A baseline IOP measurement was taken prior to topical instillation of vehicle or drug. Changes in IOP between vehicle treatment followed by treatment with EP2 compounds were assessed over time in the glaucomatous dogs. ΔΔ Emax reflects the difference in IOP±standard error from EP2 compound-treated eye over that seen for vehicle-treated eye at the time point wherein maximum IOP reduction for compound was seen. The percent ΔΔ Emax was the percentage change in IOP reduction conferred by compound over that for vehicle (set at 100%).

[4] = acid EP2 agonists, Conc 0.1 %, topical
[5] = acid EP2 agonists, Conc 0.1 %, topical, vs vehicle (set at 100%)
[6] = topical, acid EP2 agonists, Conc 0.1 %, topical, vs vehicle (set at 100%)
[7] = acid EP2 agonists, Conc 0.1 %, time point of maximum IOP reduction
[8] = isopropylesters, OHT primates, time point of maximum IOP reduction

Sequence of EP2 (P43116 whole entry): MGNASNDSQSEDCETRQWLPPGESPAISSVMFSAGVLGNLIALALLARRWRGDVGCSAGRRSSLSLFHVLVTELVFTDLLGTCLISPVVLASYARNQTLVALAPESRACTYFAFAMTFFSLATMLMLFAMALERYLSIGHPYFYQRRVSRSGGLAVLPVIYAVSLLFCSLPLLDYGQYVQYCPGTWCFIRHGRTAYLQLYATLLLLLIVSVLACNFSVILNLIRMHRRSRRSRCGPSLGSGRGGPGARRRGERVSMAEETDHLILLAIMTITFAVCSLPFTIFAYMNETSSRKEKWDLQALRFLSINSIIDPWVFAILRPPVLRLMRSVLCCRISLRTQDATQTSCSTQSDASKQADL
T1 sequence (P43116 whole entry): as above

Row | EC50 (EP2) [nM] | IC50 [1] [nM] | Compound | further results
1 | 5.35 | < 12.4 | CC(C)(C)OC(=O)CCc1cccc(CN(Cc2ccc(-c3cccnc3)cc2)S(=O)(=O)c2ccccc2)c1 [Example 4] | –
2 | 1.48 | 10 | COC(=O)COc1cccc(CN(Cc2ccc(-n3cccn3)cc2)S(=O)(=O)c2cccnc2)c1 [Example 3] | –
3 | 12 | 26 | CC(C)OC(=O)COc1cccc(CN(Cc2ccc(-c3nccs3)cc2)S(=O)(=O)c2cn(C)cn2)c1 [Example 12] | –
4 | – | – | Cn1cnc(S(=O)(=O)N(Cc2ccc(-c3nccs3)cc2)Cc2cccc(OCC(=O)O)c2)c1 | ΔΔEmax (mm Hg) [2, 4]: ns; ΔΔEmax (%) [2, 5]: ns
5 | 5.35 | < 12.4 | CC(C)OC(=O)CCc1cccc(CN(Cc2ccc(-c3cccnc3)cc2)S(=O)(=O)c2ccccc2)c1 [Example 8] | –
6 | 1.48 | 10 | CC(C)(C)OC(=O)COc1cccc(CN(Cc2ccc(-n3cccn3)cc2)S(=O)(=O)c2cccnc2)c1 [Example C12, t-butyl [3-({[4-(1H-pyrazol-1-yl)benzyl](pyridin-3-yl-sulfonyl)amino}methyl)phenoxy]acetate, reference compound] | solid form [3]: gummy material; ΔΔEmax (%) (glaucomatous dogs): −34% @ 6 h; ΔΔEmax (mmHg) (glaucomatous dogs): −8.0 1.7 mmHg @ 6 h
7 | 3.3 | 15.7 | CC(C)OC(=O)CCc1cccc(CN(Cc2ccc(-c3ncccn3)cc2)S(=O)(=O)c2ccc(Cl)cc2)c1 [Example 22] | –
8 | 51.5 | < 10 | CC(C)OC(=O)CCc1cccc(CN(Cc2ccc(-n3cccn3)cc2)S(=O)(=O)c2cccnc2)c1 [Example 20] | –
9 | 2.2 | 2.2 | CC(C)OC(=O)Cc1cccc(CN(Cc2ccc(-c3nccs3)cc2)S(=O)(=O)c2cccnc2)c1 [Example 21] | –
10 | 5.9 | < 10 | CC(C)OC(=O)CCc1cccc(CN(Cc2ccc(-n3cccn3)cc2)S(=O)(=O)c2nccs2)c1 [Example 25] | –
11 | 7.8 | 3.9 | CC(C)OC(=O)Cc1cccc(CN(Cc2ccc(-c3ncccn3)cc2)S(=O)(=O)c2cccnc2)c1 [Example 17] | –
12 | 54 | 6.64 | CC(C)OC(=O)c1csc(CCCN(CCCc2cccc(Cl)c2)S(C)(=O)=O)n1 [Example 24] | –
13 | 8.15 | 3.22 | CC(C)(C)OC(=O)c1ccc(CCCN(CCCOc2cc(Cl)cc(Cl)c2)S(C)(=O)=O)s1 [Example 10] | –
14 | – | – | O=C(O)CCc1cccc(CN(Cc2ccc(-c3cccnc3)cc2)S(=O)(=O)c2ccccc2)c1 | change in vivo at 0.1 % [2, 6]: -10%; ΔΔEmax (mm Hg) [2, 4]: −3.0 mm Hg; Tmax [2, 7]: 4 h
15 | – | – | O=C(O)COc1cccc(CN(Cc2ccc(-c3ncccn3)cc2)S(=O)(=O)c2ccccn2)c1 | ΔΔEmax (mm Hg) [2, 4]: ns; ΔΔEmax (%) [2, 5]: ns
16 | 4.1 | 7.6 | CC(C)OC(=O)COc1cccc(CN(Cc2ccc(-c3ccccn3)cc2)S(=O)(=O)c2cccnc2)c1 [Example 19] | –
17 | – | – | O=C(O)COc1cccc(CN(Cc2ccc(-n3cccn3)cc2)S(=O)(=O)c2cccnc2)c1 [drawing 60] | ΔΔEmax (mm Hg) [2, 4]: −2.6 mm Hg; ΔΔEmax (%) [2, 5]: −6%; Tmax [2, 7]: 4 h
18 | – | – | CC(C)OC(=O)c1csc(CCCN(CCOc2cc(Cl)cc(Cl)c2)S(C)(=O)=O)c1 | ΔΔEmax (mmHg) ([2]; isopropylesters, OHT primates, both eyes): −8 (both eyes) mmHg; Tmax [2, 8]: 4 to 6 h
19 | 10 | 1.48 | CCOC(=O)COc1cccc(CN(Cc2ccc(-n3cccn3)cc2)S(=O)(=O)c2cccnc2)c1 [Example 9] | –

Row | EC50 (EP2) [nM] | IC50 [1] [nM] | Compound | further results
20 | 0.85 | 3 | CC(C)OC(=O)COc1cccc(CN(Cc2ccc(-c3nccs3)cc2)S(=O)(=O)c2cccnc2)c1 [Example 16] | –
21 | 3.1 | < 10 | CC(C)OC(=O)CCc1cccc(CN(Cc2ccc(-c3ncccn3)cc2)S(=O)(=O)c2ccccc2)c1 [Example 14] | –
22 | 8.15 | 3.22 | CC(C)OC(=O)c1ccc(CCCN(CCCOc2cc(Cl)cc(Cl)c2)S(C)(=O)=O)s1 [Example 2] | –
23 | 7 | 6.6 | CC(C)OC(=O)CCCCCCN(CCCc1cc(Cl)cc(Cl)c1)S(C)(=O)=O [Example 6] | –
24 | 6.4 | < 10 | CC(C)OC(=O)CCc1cccc(CN(Cc2ccc(-c3ncccn3)cc2)S(=O)(=O)c2nccs2)c1 [Example 26] | –
25 | 5.4 | 22 | CC(C)OC(=O)COc1cccc(CN(Cc2ccc(-c3ncccn3)cc2)S(=O)(=O)c2cccnc2)c1 [Example 23] | –
26 | – | – | CS(=O)(=O)N(CCCOc1cc(Cl)cc(Cl)c1)CCCc1ccc(C(=O)O)s1 | change in vivo at 0.1 % [2, 6]: -11%; ΔΔEmax (mm Hg) [2, 4]: −4.4 mm Hg; Tmax [2, 7]: 2 h
27 | 12 | < 10 | CC(C)OC(=O)COc1cccc(CN(Cc2ccc(-n3cccn3)cc2)S(=O)(=O)c2ccccn2)c1 [Example 18] | –
28 | – | – | O=C(O)CCc1cccc(CN(Cc2ccc(-c3cncnc3)cc2)S(=O)(=O)c2ccccn2)c1 | ΔΔEmax (mm Hg) [2, 4]: ns; ΔΔEmax (%) [2, 5]: ns
29 | 1.48 | 10 | CC(C)OC(=O)COc1cccc(CN(Cc2ccc(-n3cccn3)cc2)S(=O)(=O)c2cccnc2)c1 [Example 1, isopropyl [3-({[4-(1H-pyrazol-1-yl)benzyl](pyridin-3-yl-sulfonyl)amino}methyl)phenoxy]acetate] | solid form [3]: crystalline form; ΔΔEmax (%) (glaucomatous dogs): −33% @ 6 h; ΔΔEmax (mmHg) (glaucomatous dogs): −7.0 1.2 mmHg @ 6 h
30 | – | – | O=C(O)CCc1cccc(CN(Cc2ccc(-c3cccnc3)cc2)S(=O)(=O)c2cccnc2)c1 | ΔΔEmax (mm Hg) [2, 4]: ns; ΔΔEmax (%) [2, 5]: ns
31 | 3.1 | < 10 | CC(C)OC(=O)CCc1cccc(CN(Cc2ccc(-c3ncccn3)cc2)S(=O)(=O)c2cccnc2)c1 [Example 13] | –
32 | – | – | CC(C)OC(=O)c1ccc(CCCN(CCCOc2cc(Cl)cc(Cl)c2)S(C)(=O)=O)s1 [drawing 62] | ΔΔEmax (%) ([2]; isopropylesters, OHT primates, OHT eye): ns; ΔΔEmax (mmHg) ([2]; isopropylesters, OHT primates, OHT eye, 0.1 mg/ml topical): ns; Tmax (h) [2, 8]: ns
33 | – | – | O=C(O)CCCCCCC1C(=O)CC[C@@H]1CCc1cccc(C(F)(F)F)c1 (some centres unmarked) | change in vivo at 0.1 % [2, 6]: -9%; ΔΔEmax (mm Hg) [2, 4]: −3.7 mm Hg; Tmax [2, 7]: 6 h
34 | – | – | O=C(O)COc1cccc(CN(Cc2ccc(-n3cccn3)cc2)S(=O)(=O)c2cccnc2)c1 [drawing 52] | ΔΔEmax (mm Hg) [2, 4]: −7.0 mm Hg; ΔΔEmax (%) [2, 5]: −21%; Tmax [2, 7]: 4 h
35 | 4.8 | 4.42 | CC(C)OC(=O)c1ccc(CCCN(CCOc2cc(Cl)cc(Cl)c2)S(C)(=O)=O)s1 [Example 5] | –
36 | 18 | 5.3 | CC(C)OC(=O)c1csc(CCCN(CCOc2cc(Cl)cc(Cl)c2)S(C)(=O)=O)n1 [Example 7] | –
37 | 4.9 | < 10 | CC(C)OC(=O)CCc1cccc(CN(Cc2ccc(-c3ncccn3)cc2)S(=O)(=O)c2ccccn2)c1 [Example 15] | –
38 | – | – | CS(=O)(=O)N(CCCc1nc(C(=O)O)cs1)CCOc1cc(Cl)cc(Cl)c1 | change in vivo at 0.1 % [2, 6]: -8%; ΔΔEmax (mm Hg) [2, 4]: −4.3 mm Hg; Tmax [2, 7]: 2 h
